The values below come from patent US5256690A, “Method for treating and controlling the symptoms of neurodegenerative disease and neuropsychopharmacological disorders” (Carter-Wallace, Inc., priority 1992, dated 1993).

The structures appear in SMILES notation.

One data set relates to MES. Particulars: rats; cited from earlier work.
The next data set deals with metrazol. Particulars: rats; cited from earlier work.
Data set [1] has as its target T1, strychnine-insensitive glycine receptors (Rattus norvegicus, UniProt P35439).
T1 construct: Brains are immediately removed and forebrains dissected; from tissue; host or cells: rat forebrain membranes (P2/P3 pellet, washed, frozen), male Sprague-Dawley
Kind of data set: biochemical. Type of data set: binding. Here is the method:
Male Sprague-Dawley rats weighing 150-200 g are housed under a 12-hour light/dark cycle with access to food and water ad libitum. Animals are anesthetized with CO2 and sacrificed by decapitation. Brains are immediately removed and forebrains dissected, weighed and placed in 10 volumes (original wet weight volume) of 5 mM Hepes/4.5 mM Tris buffer (HTS; pH 7.8) containing 0.32 M sucrose. Tissue preparation is performed at about 4° C unless otherwise stated. Tissues are homogenized using a Brinkmann Polytron (setting 6, 30 seconds), diluted to 50 volumes in HTS-sucrose, and centrifuged at 1,000 xg for 10 minutes. The resultant pellet (P1) is discarded and supernatant centrifuged at 20,000 xg for 20 minutes. The resultant pellet (P2) is resuspended in HTS and centrifuged at 8,000 xg for 20 minutes. The supernatant and outer buffy coat (remaining pellet core discarded) is centrifuged at 20,000 xg for 20 minutes. The resultant pellet (P2/P3) is resuspended in HTS containing 1 mM EDTA and centrifuged at 20,000 xg for 20 minutes. The P2/P3 pellet is resuspended in HTS and the "washing" procedure is repeated two more times. The P2/P3 pellet is then resuspended in 5 volumes of HTS, frozen on dry-ice and stored at -80° C. for at least 72 hours prior to binding assay.
At the time of the assay, the appropriate amount of tissue is thawed and resuspended in 50 mM Hepes-KOH buffer (pH 8.0 at 4° C.) and "washed" twice by resuspension and centrifugation at 20,000 xg for 20 minutes. The binding of [^3 H]5,7DCKA is performed as described by Baron et al. Env. J. Pharmacol 206: 149-154 (1991). Assays are performed at 4° C. using quadruplicate samples in a total volume/tube of 1-ml consisting of: 500 ul membrane suspension (200-300 ug protein/assay tube) in 50 mM Hepes-KOH buffer (pH 8.0 at 4° C.), 100 ul [^3 H]5,7DCKA solution (19-21 nM; specific activity 18.2 Ci/mmol), 100 ul drug or buffer, and 300 ul buffer. […] Felbamate, solutions of 10 mM and 100 mM, are dissolved in 40-50% and 100% DMSO, respectively, and serial dilutions are performed. Binding reactions are initiated by adding the tissue homogenate and terminated after a 15 minute incubation period by rapid filtration through Brandel GF/B filters using a Brandel M-24 cell harvester. This filtration is followed by two 5-ml rinses with ice-cold buffer. Radioactivity is monitored in a Beckman LS 5801 liquid scintillation counter.
Displacement curves and IC50 values were analyzed using Graphpad (ISI Software, Philadelphia, Pa.).

The next data set deals with hippocampal slices. Kind of data set: Hippocampal slice hypoxia model (evoked potential recovery). The class given is cell-based, rat. Particulars: for evoked potential (population spike) recovery: after one hour recovery. Here is the method: Sprague-Dawley rats are briefly anesthetized with Halothane and then decapitated. The brain is removed and the hippocampus dissected. Transverse hippocampal brain slices of 475 microns are sectioned with a McIlwain tissue chopper. Slices are then incubated in a temperature controlled chamber of 34 degrees centigrade while being perfused with an artificial cerebral spinal fluid (NaCl 126 mM; KCl, 4; KH2 PO4, 1.4; MgSO4, 1.3; CaCl2, 2.4; NaHCO3, 26 and glucose, 4) saturated with 95% O2 and 5% CO2.
After an initial one hour equilibration period, the slices are tested for electrophysiological function. Electrical stimulation is given in the region of the CA3 collaterals with a bipolar twisted wire electrode. Evoked responses are recorded extracellularly in the pyramidal cell layer of the CA1 region. Stimulation is given for a duration of 40 microseconds in square wave pulses. The peak-to-peak amplitude of the resultant evoked potential response is then monitored.
Hippocampal slices from one animal are placed in two chambers. One chamber is used as a control and receives standard artificial cerebral spinal fluid (ACSF) while the second receives felbamate. In each chamber, one slice is stimulated every 30 seconds to monitor evoked potential response. Other slices in the chamber are not continuously stimulated. In these latter slices, designated as non-stimulated, the evoked potential response is assessed only at the beginning and end of the experiment. Only slices with initial evoked potentials of 3 mV or greater amplitude are included for testing.
The experimental chamber is perfused with oxygenated artificial cerebral spinal fluid (ACSF) containing felbamate for 30 minutes before the initiation of hypoxic conditions. The control chamber continues to receive oxygenated ACSF without felbamate during this period. Hypoxic conditions are then initiated simultaneously in both chambers by changing to perfusing media saturated with 95% N2 and 5% CO2. The experimental chamber receives nitrogenated ACSF with felbamate while the control chamber receives nitrogenated ACSF without felbamate.
The duration of hypoxic exposure for both chambers is determined by the disappearance of the hypoxic injury potential (HIP) in the control stimulated slice. This potential appears during hypoxia after the disappearance of the original evoked potential. Although hippocampal slices can vary in their temporal response to hypoxia, the HIP is a reliable marker of permanent hypoxic injury. For this reason, the disappearance of the HIP is chosen to determine length of hypoxic exposure. Hypoxia is continued in both chambers for 5 minutes beyond the disappearance of the HIP in the stimulated control slice.
After hypoxic exposure, slices are monitored through one hour of recovery with oxygenated ACSF. The felbamate chamber receives oxygenated ACSF with felbamate for the first 15 minutes of this recovery and then standard oxygenated ACSF for the remaining 45 minutes of recovery. After a one-hour recovery period, the percentage of evoked potential amplitude recovery is assessed in both stimulated and non-stimulated slices. This percentage is calculated as the evoked potential amplitude after recovery divided by the evoked potential amplitude prior to hypoxic exposure.
This protective action is assessed by several measures. First, evoked potential recovery is assessed in both stimulated and non-stimulated slices. Additionally, hypoxic protection is calculated for both stimulated and non-stimulated slices. This measure is calculated as the damage seen in control slices minus the damage seen in experimental (felbamate) slices divided by the damage seen in control slices. For these purposes damage is defined as 100 percent minus percent recovery. The determination of hypoxic protection helps take into account any survival seen in control slices. Lastly, counts of total surviving slices were made. […]

Data set [2] can be described thus: Preclinical margin of safety (protective index). Type of data set: in vivo. To be noted: preclinical profile.
Data set [3] has as its target T1, strychnine-insensitive glycine receptors. To be noted: value used in the K calculation; read-out: dissociation constant KD of [3H]5,7DCKA; cited from earlier work.

Usually IC50 stands for the midpoint of a concentration-inhibition curve. What is called Ki is a dissociation constant, usually derived from enzyme kinetics or from competition with a known ligand. By Hill slope is commonly meant a measure of the steepness of the concentration-response curve. For the compound `NC(=O)OCC(COC(N)=O)c1ccccc1` [felbamate, 2-phenyl-1,3-propanediol dicarbamate], in the data set on MES, the “anticonvulsant ED50 for MES” value was 46 mg/kg. Moreover, in the data set on metrazol, the “anticonvulsant ED50 for metrazol” value is 238 mg/kg. Also, the IC50 in data set [1] (IC50, inhibition of [3H]5,7DCKA, 10 uM-10 mM, combined data of three experiments on a single graph, FIG. 2) amounted to 374 µM; in data set [1] (IC50 value (mean +/- SEM), mean of the felbamate displacement experiments), 477 ± 49 µM. In addition, the Ki was 368 ± 37 µM in data set [1] (K estimate for inhibition of [3H]5,7DCKA (mean +/- SEM), calculated, mean of experiments, FIG. 2) and 289 µM in data set [1] (K estimate for inhibition of [3H]5,7DCKA, calculated from IC50 of combined data). Besides, the Hill slope in data set [1] (combined displacement data, FIG. 2) is recorded as -0.93. For the same compound, the “mode of inhibition of [3H]5,7DCKA binding” value in data set [1] (rat forebrain membranes, FIG. 2) is listed as “competitively inhibits”. Besides, the neuroprotection against hypoxia entry with hippocampal slices (380 uM, 840 uM, 1,300 uM and 1,700 uM) is listed as “Significant neuroprotection”. The “counts of surviving stimulated slices” value in the data set on hippocampal slices (1,300 and 1,700 uM, survival criterion 3 mV) is reported as “substantial felbamate protection”. In addition, the “toxicity for electrophysiological function” value in the data set with hippocampal slices (high concentration of felbamate) is “no evidence of toxicity”. For the same compound, in the data set on hippocampal slices (pre-hypoxic incubation, felbamate perfusion), the “toxicity (permanent evoked potential loss)” value was “no evidence of toxicity”. For the same compound, the “evoked potential (population spike) recovery” value is given as 2% in the data set on hippocampal slices (stimulated slices, 4 uM); 6% in the data set with hippocampal slices (stimulated slices, 190 uM); 13% in the data set on hippocampal slices (stimulated slices, 380 uM); 46% with hippocampal slices (stimulated slices, 840 uM); 95% in the data set on hippocampal slices (stimulated slices, 1,300 uM); 96% in the data set on hippocampal slices (stimulated slices, 1,700 uM). In addition, the “delay of appearance of the hypoxic injury potential (HIP)” value in the data set with hippocampal slices (stimulated slices, 1,700 uM) is 14.5 min. Further, the “effect on disappearance of the evoked potential” value in the data set on hippocampal slices (stimulated slices, 1,700 uM, hypoxia) is “did not affect”. In addition, the “counts of surviving non-stimulated slices” value in the data set on hippocampal slices (survival criterion 3 mV) is on record as “substantial protection”. For the same compound, the protective index in data set [2] is given as 16.9-19.1.
As a reminder, the Kd is the concentration at which binding is half-saturated. Consider `O=C(O)c1cc(O)c2c(Cl)cc(Cl)cc2n1` [[^3 H]5,7DCKA, [^3 H]5,7-dichlorokynurenic acid], for which, in data set [3], the Kd is 0.069 µM.
